Earlier results on one compound are cited in paper PMC4381553, “Acute and Chronic Toxicity, Cytochrome P450 Enzyme Inhibition, and hERG Channel Blockade Studies with a Polyherbal, Ayurvedic Formulation for Inflammation” (BioMed Research International, 2015).

Read-outs that look alike come from different tables or passages of the source.

Series [1] has as its system CYP3a. The note with it: only at very high dose (200 μg/mL), human liver microsome.
In series [2] the test system is CYP3a. The note with it: only at very high dose (200 μg/mL), rat liver microsome. For orientation: Microsomes from liver hold many membrane-bound enzymes, among them those of drug oxidation.

`CC1=C(CO)C(=O)O[C@@H]([C@@H](C)[C@H]2CC[C@H]3[C@@H]4CC=C5C[C@@H](O[C@@H]6O[C@H](CO[C@@H]7O[C@H](CO)[C@@H](O)[C@H](O)[C@H]7O)[C@@H](O)[C@H](O)[C@H]6O)C[C@H](O)[C@]5(C)[C@H]4CC[C@]23C)C1` [Withanoside IV]: the “inhibitory activity of CYP3a” value with CYP3a [1] and with CYP3a [2] was “some inhibitory activity” throughout.
